# In patent US8354381B2, “Peptide compositions for oral care systems” (E I du Pont de Nemours and Company, priority 2009, dated 2013):
# Where no end group is shown, it is not given here. The star is where a group is joined. Biotin = O=C1N[C@H]2[C@H](CS[C@H]2CCCCC(=O)*)N1
# Tested on: not listed separately
# Experiment: Phage ELISA, bovine enamel-binding assay
# Conditions: over 10^10 pfu phage, unpolished bovine enamel, A450
# Description: A total of 11 selected phage candidates (Example 3) was used in a phage ELISA experiment. Purified phage lysates were used for binding to the enamel blocks using an anti-M13 phage antibody conjugated to horseradish-peroxidase, followed by the addition of chromogenic agent TMB. The plates were read at A450 nm.
# For each phage candidate to be tested, the polished and unpolished enamel blocks were incubated for 1 h at room temperature with 200 μL of blocking buffer, consisting of 2% non-fat dry milk (Schleicher & Schuell, Inc.) in TBS. […] The tube was rinsed 6 times with wash buffer consisting of TBST-0.05%. The wells were filled with 200 μL of TBST-0.5% containing 1 mg/mL BSA and then 10 μL (over 10^10 pfu) of purified phage stock was added. The samples were incubated at room temperature for 60 min with slow shaking. The non-binding phage was removed by washing 6 times with TBST-0.5%. […] The conjugate solution was removed and was washed 6 times with TBST-0.5%. […] BoEn P means bovine polished enamel and BoEn means bovine enamel.
row,Substance,O.D.450
1,LNDQRKPGPPTMPTHSPAVG (Synthetic oral-surface binding peptide) [BoEn 5],0.944
2,YSETPNDQKPNPHYKVSGTK (Synthetic oral-surface binding peptide) [BoEn 10],3.942
3,NTCATSPNSYTCSN (Synthetic oral-surface binding peptide) [BoEn 6],2.38
4,SDCTAGLVPPLCAT (Synthetic oral-surface binding peptide) [BoEn 7],0.892
5,VGTMKQHPTTTQPPRVSATN (Synthetic oral-surface binding peptide) [BoEn 9],0.568
6,AANPHTEWDRDAFQLAMPPK (Synthetic oral-surface binding peptide) [BoEn 1],1.402

# Tested on: pellicle coated bovine enamel
# Experiment: Phage ELISA on pellicle coated bovine enamel (Example 6)
# Type: binding, human
# Conditions: 10^11 pfu phage, 30 min in vivo pellicle on bovine enamel, normalized to an internal control
# Description: A total of 29 selected phage candidates from Table 5 were used in phage ELISA Experiment to determine binding affinity and coverage of each phage on pellicle substrates. Purified phage lysates were used for binding to pellicle coated bovine enamel using an anti-M13 phage antibody conjugated to horseradish-peroxidase, followed by the addition of chromogenic agent TMB. The plates were read at A450 nm.
# The wells were filled with 1 mL of 10^11 pfu purified phage stock which was prepared by diluting in blocking buffer. […] The non-binding phage was removed by washing 5 times with PBST. […] The conjugate solution was removed and was washed 3 times with PBST.
row,Substance,O.D.450 (normalized)
1,TTYHYKNIYQESYQQRNPAV (Synthetic oral-surface binding peptide) [DenP3],2.495

# Tested on: pellicle coated bovine enamel
# Experiment: Phage ELISA of brushed 8 hr pellicle candidates, screened with 30 min in vivo pellicle (Example 8)
# Type: binding, human
# Conditions: 10^11 pfu phage, 30 min in vivo pellicle on bovine enamel, normalized to DenP3
# Description: A total of 18 selected phage candidates were used in a phage ELISA Experiment. Purified phage lysates were used for binding to pellicle coated bovine enamel using an anti-M13 phage antibody conjugated to horseradish-peroxidase, followed by the addition of chromogenic agent TMB. The plates were read at A450 nm.
# The wells were rinsed 2 times with wash buffer consisting of PBST. The wells were filled with 1 mL of 10^11 pfu purified phage stock which was prepared by diluting in blocking buffer. […] The non-binding phage was removed by washing 5 times with PBST. Then, 500 μL of horseradish peroxidase/anti-M13 antibody conjugate (Amersham USA, Piscataway, N.J.), diluted 1:500 in the blocking buffer, was added and incubated for 45 min at room temperature. The conjugate solution was removed and was washed 5 times with PBST.
row,Substance,O.D.450 (normalized)
1,WHEPHQFSGENTDYSSSMGT (Synthetic oral-surface binding peptide) [DenP109],0.716
2,MPGHQESIKVQNWNRV (Synthetic oral-surface binding peptide) [DenP117],0.433
3,QFNQTSHSFMHGTSGYVPGK (Synthetic oral-surface binding peptide) [DenP105],0.470
4,GVHQYSRPTVPSYLWTSGQH (Synthetic oral-surface binding peptide) [DenP103],0.879
5,NQQMKLVPQHWHRAQP (Synthetic oral-surface binding peptide) [DenP119],1.051
6,EFYPFAEVPPEKSGIGRQVF (Synthetic oral-surface binding peptide) [DenP102],0.520
7,GINKGQRPPWESWHEN (Synthetic oral-surface binding peptide) [DenP114],0.703
8,GGMGALESYRQWNHLA (Synthetic oral-surface binding peptide) [DenP113],1.348
9,TTYHYKNIYQESYQQRNPAV (Synthetic oral-surface binding peptide) [DenP3],1.000
10,GYGQYVSQQTWAHSNK (Synthetic oral-surface binding peptide) [DenP115],0.501
11,AIEYQHSATTPWTMRTRLPP (Synthetic oral-surface binding peptide) [DenP101],0.467
12,THGNKHQSWTYPSEINHKNY (Synthetic oral-surface binding peptide) [DenP108],1.149
13,DGYKLQTSLDWQMWNP (Synthetic oral-surface binding peptide) [DenP111],1.051
14,SMWHDITKRYRNPSEMVSAY (Synthetic oral-surface binding peptide) [DenP107],0.726
15,GYQPHYVDHTIGWQPMIRPN (Synthetic oral-surface binding peptide) [DenP104],0.790
16,HDHLSWWGQFDRQNLL (Synthetic oral-surface binding peptide) [DenP116],1.055
17,FPSKWYNHHRHITGHV (Synthetic oral-surface binding peptide) [DenP112],0.413
18,SFSWHRGDWELGHQSKTMGM (Synthetic oral-surface binding peptide) [DenP106],1.524
19,NLHSPWPSHAAHHWST (Synthetic oral-surface binding peptide) [DenP118],0.641

# Tested on: pellicle coated enamel substrates
# Experiment: not given
# Conditions: 20 μM biotinylated peptide, streptavidin-HRP, normalized to DenP03, three replicates
# Description: A total of 20 synthetic peptides were manufactured using sequences obtained from Table 6. Peptides were obtained from SynBioSci Corp. (Livermore, Calif.) and included an additional sequence (SSRP; SEQ ID NO: 118) at the N-terminus and biotin labeled lysine at the C-terminus.
# Enamel substrates were cut into approximately 7 mm squares and mounted on wax mounting for incubation in the mouth for 30 min to form a pellicle coated surface. The pellicle coated enamel substrates were removed from the wax backing and placed in well plates with the pellicle surface exposed as in Example 5. Each pellicle coated substrate was incubated for 1 h at room temperature (˜22° C.) with 1 mL of blocking buffer, consisting of 1 mg/mL BSA in PBST (Pierce BUPH™ #28372 with 0.1% TWEEN® 20). The blocking buffer was removed by aspirating the liquid out of each well. The tube was rinsed 2 times with wash buffer consisting of PBST. The wells were filled with 500 μL of 20 μM peptide solution which was prepared by diluting in blocking buffer. The samples were incubated for 30 min with slow shaking at 37° C. The non-binding peptide was removed by washing 6 times with PBST. Then, 500 μL of horseradish peroxidase/streptavidin conjugate (Pierce #22127), diluted 1:2000 in PBST, was added and incubated for 1 h at room temperature (˜22° C.). The conjugate solution was removed and was washed 4 times with PBST.
# Each enamel substrate was removed from the well and washed again in a 15-mL test tube with 10 mL of PBST. Each enamel substrate was then mounted in a clean well plate with only the enamel surface exposed. A 1:1 solution of TMB substrate and H2O2 (200 μL) was added to each well and the color was allowed to develop for between 10 to 20 min, typically for 15 min, at room temperature (˜22° C.). Then, 100 μL of solution from each well was transferred to a 96 well reading plate containing stop solution (100 μL of 2 M H2SO4) in each well. The A450 was measured using a microplate spectrophotometer (Molecular Devices, Sunnyvale, Calif.). […] Each sequence was tested with three replicate enamel coated pellicle substrates.
row,Substance,O.D.450 (normalized)
1,SSRPTYQGVPSWPAVIDDAIRRK(Biotin) [DenP19-A],0.712
2,SSRPGPQHVLMQDTHQGYAFDNK(Biotin) [DenP16-A],0.309
3,SSRPSEARARTFNDHTTPMPIIK(Biotin) [DenP14-A],0.269
4,SSRPDLGTFPNRTLKMAAHK(Biotin) [DenP11-A],0.454
5,SSRPAPPTYQTASYPHNLPSKRKMK(Biotin) [DenP28-A],0.811
6,SSRPIYPNESMSTSNVRGPYHPK(Biotin) [DenP22-A],0.354
7,SSRPFDGIGLGTATRHQNRK(Biotin) [DenP12-A],0.475
8,SSRPQVPDYLSPTHQKKAFLEIPTK(Biotin) [DenP29-A],0.468
9,SSRPQAAQVHMMQHSRPTTK(Biotin) [DenP13-A],0.699
10,SSRPVEPATKNMREARSSTQMRRIK(Biotin) [DenP4-A],0.803
11,SSRPHDPNHLTHQARTIYRNANHTK(Biotin) [DenP23-A],0.850
12,SSRPEFPYYNDNPPNPERHTLRK(Biotin) [DenP7-A],0.356
13,SSRPELDHDSRHYMNGLQRKVTK(Biotin) [DenP15-A],0.460
14,SSRPYLLPKDQTTAPQVTPIVQHKK(Biotin) [DenP5-A],0.462
15,SSRPVNPNWVETQALHQPPGNTK(Biotin) [DenP20-A],0.590
16,SSRPTMTNHVYNSYTEKHSSTHRSK(Biotin) [DenP2-A],0.273
